# The supplement of paper PMC11208160
# Assay: recombinant barcode read abundance after kanamycin selection (control-corrected) (log10(CPM+1)); higher = more efficient recombination; sequences stand for … in AGTGCAGAGAAAATCGGCCAGTTTTCTCTGCCTGCAGTCCGCATGCCGT…AGATTTATGCAGCGGACTGCCTTTCTCCCAAAGTGATAAACCGGACAGTATCATGGACCGGTTTTCCCGGTAATCCGTATTTGCAAGGTTGGTTTCACT; site = the 11-nt target
# Method: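 Pooled E. coli target-specificity screen for the IS621 bridge recombinase. Each library plasmid pairs an 11-nt target (CT core) with a bridge RNA whose target-binding loop (9-nt LTG + 4-nt RTG) is reprogrammed; the rest of the 177-nt WT IS621 bridge RNA scaffold is fixed. The plasmid is co-electroporated with a WT donor plasmid; recombinase is induced with 0.1 mM IPTG and recombinants are selected on kanamycin. Recombinant barcodes are sequenced, converted to CPM, averaged over two biological replicates and corrected by the unselected control CPM. Molecule = full bridge RNA written as DNA: LTG = specificity nt 1-9, RTG = reverse complement of specificity nt 8-11, in the WT scaffold.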
# 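Note: IS621 recombinase and bridge RNA in Escherichia coli cells.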
row,Sequence,recombinant barcode read abundance (log10)
1,ACCTACGCTTGGGTTCTAACCTGTTGCCT (site ACCTACGCTAG),1.01
2,ACCTACGCTTGGGTTCTAACCTGTTGCCT (site ACCTACTCTAG),0.23
3,ACCTACTCTTGGGTTCTAACCTGTTGCTT (site ACCTACTCTAA),1.33
4,ACCTACTCTTGGGTTCTAACCTGTTGCTT (site AGCTACCCTAA),0.315
5,ACCTCGGCTTGGGTTCTAACCTGTTGCTG (site ACCTCGGCTCA),0.399
6,ACCTCGGCTTGGGTTCTAACCTGTTGCTG (site TGGCAATCTAG),0.0759
7,ACCTTAGCTTGGGTTCTAACCTGTTGCTT (site ACCTTAGCTAA),0.297
8,ACCTTAGCTTGGGTTCTAACCTGTTGCTT (site TAGGCGACTTG),0.0735
9,ACCTTGTCTTGGGTTCTAACCTGTTGCTA (site ACCTTGTCTTA),0.777
10,ACCTTGTCTTGGGTTCTAACCTGTTGCTA (site GCCATGTCTTA),0.0578
11,ACGAAGGCTTGGGTTCTAACCTGTTGCCT (site ACGAAGGCTAG),0.696
12,ACGAAGGCTTGGGTTCTAACCTGTTGCCT (site ACGAAGGCTCG),0.0407
13,ACGAGCGCTTGGGTTCTAACCTGTTGCCT (site ACGAACGCTAG),0.132
14,ACGAGCGCTTGGGTTCTAACCTGTTGCCT (site ACGACCGCTAG),0.0589
15,ACGAGCGCTTGGGTTCTAACCTGTTGCCT (site ACGAGCGCTAG),1.54
16,ACGAGCGCTTGGGTTCTAACCTGTTGCCT (site ACGATCGCTAG),0.0598
17,ACGAGCTCTTGGGTTCTAACCTGTTGCTG (site ACGAGCTCTCA),1.84
18,ACGAGCTCTTGGGTTCTAACCTGTTGCTG (site CCGCGCTCTCA),0.0264
19,ACGAGTACTTGGGTTCTAACCTGTTGCTG (site ACGAGTACTCA),1.02
20,ACGAGTACTTGGGTTCTAACCTGTTGCTG (site ACGAGTACTCC),0.662
21,ACGAGTCCTTGGGTTCTAACCTGTTGCGT (site ACGAGTCCTAC),2.6

row,Sequence,recombinant barcode read abundance (log10)
1,ACGAGTCCTTGGGTTCTAACCTGTTGCGT (site ACGAGTCCTAG),0.202
2,ACGCAATCTTGGGTTCTAACCTGTTGCCT (site ACGCAATCTAG),0.0303
3,ACGCAATCTTGGGTTCTAACCTGTTGCCT (site ACGCACTCTAG),0.0895
4,ACGCAATCTTGGGTTCTAACCTGTTGCCT (site ACGCAGTCTAG),0.131
5,ACGCAATCTTGGGTTCTAACCTGTTGCCT (site ACGCATTCTAG),0.157
6,ACGCACTCTTGGGTTCTAACCTGTTGCCG (site ACGCACTCTCG),0.646
7,ACGCACTCTTGGGTTCTAACCTGTTGCCG (site GATGGTACTAT),0.0148
8,ACGCATTCTTGGGTTCTAACCTGTTGCCT (site ACGCAATCTAG),0.0565
9,ACGCATTCTTGGGTTCTAACCTGTTGCCT (site ACGCACTCTAG),0.123
10,ACGCATTCTTGGGTTCTAACCTGTTGCCT (site ACGCAGTCTAG),0.0603
11,ACGCATTCTTGGGTTCTAACCTGTTGCCT (site ACGCATTCTAG),0.355
12,ACGCGCCCTTGGGTTCTAACCTGTTGCAC (site ACGCGCCCTGT),0.152
13,ACGCGCCCTTGGGTTCTAACCTGTTGCAC (site CCGCGCCCTAT),0.0707
14,ACGCTATCTTGGGTTCTAACCTGTTGCTT (site ACGCTATCTAA),0.13
15,ACGCTATCTTGGGTTCTAACCTGTTGCTT (site CTAGCGACTCG),0.159
16,ACGGCATCTTGGGTTCTAACCTGTTGCCT (site ACGGCATCTAG),0.0883
17,ACGGCATCTTGGGTTCTAACCTGTTGCCT (site ACGGCCTCTAA),0.225
18,ACGGGCTCTTGGGTTCTAACCTGTTGCTT (site ACGGGCTCTAA),2.69
19,ACGGGCTCTTGGGTTCTAACCTGTTGCTT (site AGGGGCTCTCA),0.032
20,ACGGTCACTTGGGTTCTAACCTGTTGCCG (site ACGGTCACTCG),0.435
21,ACGGTCACTTGGGTTCTAACCTGTTGCCG (site AGGGGCACTCG),0.533

row,Sequence,recombinant barcode read abundance (log10)
1,ACGTCAACTTGGGTTCTAACCTGTTGCCT (site ACATCAACTAG),0.192
2,ACGTCAACTTGGGTTCTAACCTGTTGCCT (site ACCTCAACTAG),0.454
3,ACGTCAACTTGGGTTCTAACCTGTTGCCT (site ACGTCAACTAG),0.0389
4,ACGTCAACTTGGGTTCTAACCTGTTGCCT (site ACTTCAACTAG),0.0307
5,ACGTTTCCTTGGGTTCTAACCTGTTGCAT (site AAGTTTCCTAC),0.0104
6,ACGTTTCCTTGGGTTCTAACCTGTTGCAT (site ACGTTTCCTAT),0.0487
7,ACTAAGTCTTGGGTTCTAACCTGTTGCCT (site AATAAGTCTAG),0.106
8,ACTAAGTCTTGGGTTCTAACCTGTTGCCT (site ACTAAGTCTAG),0.53
9,ACTAAGTCTTGGGTTCTAACCTGTTGCCT (site AGTAAGTCTAG),0.0249
10,ACTAAGTCTTGGGTTCTAACCTGTTGCCT (site ATTAAGTCTAG),0.0792
11,ACTACTACTTGGGTTCTAACCTGTTGCCA (site ACTACTACTTG),0.0676
12,ACTACTACTTGGGTTCTAACCTGTTGCCA (site GGTACTACTTG),0.433
13,ACTAGAACTTGGGTTCTAACCTGTTGCAA (site ACTAGAACTTT),0.402
14,ACTAGAACTTGGGTTCTAACCTGTTGCAA (site ACTAGGACTCT),0.116
15,ACTAGCTCTTGGGTTCTAACCTGTTGCTA (site ACTAGCTCTTA),0.145
16,ACTAGCTCTTGGGTTCTAACCTGTTGCTA (site ACTAGGTCTTA),0.0229
17,ACTAGGACTTGGGTTCTAACCTGTTGCAG (site ACTAGAACTTT),0.0381
18,ACTAGGACTTGGGTTCTAACCTGTTGCAG (site ACTAGGACTCT),2.49
19,ACTAGGACTTGGGTTCTAACCTGTTGCGC (site ACTAGGACTAC),0.571
20,ACTAGGACTTGGGTTCTAACCTGTTGCGC (site ACTAGGACTCC),0.478
21,ACTAGGACTTGGGTTCTAACCTGTTGCGC (site ACTAGGACTGC),2.3

row,Sequence,recombinant barcode read abundance (log10)
1,ACTAGGACTTGGGTTCTAACCTGTTGCGC (site ACTAGGACTTC),0.0123
2,ACTCACCCTTGGGTTCTAACCTGTTGCGG (site ACTCACCCTCC),2.62
3,ACTCACCCTTGGGTTCTAACCTGTTGCGG (site CTATTAACTTA),0.126
4,ACTCCGTCTTGGGTTCTAACCTGTTGCCT (site ACTCCGTCTAG),1.28
5,ACTCCGTCTTGGGTTCTAACCTGTTGCCT (site ACTGCGTCTAG),0.109
6,ACTCGATCTTGGGTTCTAACCTGTTGCCT (site ACTCGATCTAG),0.595
7,ACTCGATCTTGGGTTCTAACCTGTTGCCT (site AGTCGATCTAA),0.0189
8,ACTCGGCCTTGGGTTCTAACCTGTTGCCT (site ACTCGGCCTAC),0.0497
9,ACTCGGCCTTGGGTTCTAACCTGTTGCCT (site ACTCGGCCTAG),1.45
10,ACTCGTCCTTGGGTTCTAACCTGTTGCTA (site ACTCGTCCTTA),0.584
11,ACTCGTCCTTGGGTTCTAACCTGTTGCTA (site GAGAAGACTAC),0.0362
12,ACTGATACTTGGGTTCTAACCTGTTGCCT (site ACTGATACTAG),1.84
13,ACTGATACTTGGGTTCTAACCTGTTGCCT (site ACTGATCCTAG),0.0466
14,ACTGATACTTGGGTTCTAACCTGTTGCCT (site ACTGATGCTAG),0.313
15,ACTGATACTTGGGTTCTAACCTGTTGCCT (site ACTGATTCTAG),0.241
16,ACTGATCCTTGGGTTCTAACCTGTTGCAT (site ACTGATCCTAT),2.35
17,ACTGATCCTTGGGTTCTAACCTGTTGCAT (site TTCTTAACTCC),0.00751
18,ACTGATCCTTGGGTTCTAACCTGTTGCCT (site ACTGATACTAG),0.00756
19,ACTGATCCTTGGGTTCTAACCTGTTGCCT (site ACTGATCCTAG),2.1
